The results in this text go back to US5880092A, “Conformationally stabilized cell adhesion peptides” (La Jolla Cancer Research Foundation, priority 1995, dated 1999).

Where no end group is shown, it is not given here. [ ]: non-standard residue; d: D form. Pen = CC(C)(S)[C@H](N)C(=O)O

Assay [1] concerns attachment of normal rat kidney cells to vitronectin. Kind of assay: Cell adhesion assay: inhibition of attachment of normal rat kidney cells to vitronectin. It counts as cell-based. The conditions noted are these: vitronectin from human plasma coated at 12 μg/ml, peptide 0 to 10.0 mM, FIG. 2. The procedure: (§1) Fibronectin and vitronectin were purified from human plasma according to the methods of Ruoslahti et al., (1982) Meth. Enz. 82:803; and Hayman et al., (1983) PNAS 80:4003, respectively, both of which are incorporated herein by reference. The adhesion of normal rat kidney cells to fibronectin and vitronectin was assayed as described in Ruoslahti et al., Meth. Enz. supra. Briefly, 0.1 ml solution of fibronectin or vitronectin at a concentration of 12 μg/ml in 0.1M PBS was placed in each well of 96-well plastic microtiter plates and left for 2 hours at room temperature. The unattached protein was removed by washing three times with PBS.
(§2) One day before the assay, a confluent culture of normal rat kidney cells was split 1:2 using standard tissue culture trypsin. The cells were washed three times with PBS, pH 7.2. […] Before the last centrifugation, a sample was taken and cell numbers and viability by trypan blue exclusion are determined. […]
(§3) The unattached cells were removed simply by removing the medium and washing the wells. […] The cells were then fixed with 3% paraformaldehyde in PBS and stained with 1% toluidine blue, paraformaldehyde in PBS, and attached cells counted. Their number was determined using a cell counter that is capable of counting cells attached to a surface (Dynatech Laboratories, Alexandria, Va.). […]

Assay [2] relates to attachment of normal rat kidney cells to fibronectin. The experiment in a line: Cell adhesion assay: inhibition of attachment of normal rat kidney cells to fibronectin. Conditions: fibronectin from human plasma coated at 12 μg/ml, peptide 0 to 10.0 mM, FIG. 2. It counts as cell-based. The procedure:
as §1, §2, §3

“G[Pen]GRGDSPC (cysteine pairing not given here) [linear peptide]”: the “inhibition of attachment to vitronectin” value in assay [1] is recorded as “inhibited attachment of cells to both substrates at relatively similar concentrations”. The “inhibition of attachment to fibronectin” value in assay [2] was “inhibited attachment of cells to both substrates at relatively similar concentrations”.
